Columns and labels:
[1] = target: CLPY biosensor (CFP-LuxP-YFP fusion) (Vibrio harveyi, UniProt P54300, D303A); test: CLPY FRET binding affinity determination; set-up: species or system V. harveyi
Method: The YFP or CFP fluorescence response of wild-type and mutant forms of CLPY (1.0 mL, 0.015 mg/mL) to different ligands is measured 5 minutes after addition of the ligand to the protein at room temperature. No time-dependent changes in the CLPY FRET ratio are observed after incubation for 5 minutes. All BAI-2 dilutions are carried out in a borate-free buffer to maintain the DPD:borate ratio (1:4). The CLPY FRET ratio response to different BAI-2 concentrations is used to generate the ligand binding saturation curve. For the determination of the binding affinity (Kd) and the binding stoichiometry n, a nonlinear regression analysis equation (Equation 4) is used as shown below: […]
where R is the observed CLPY FRET ratio response for different ligand concentrations (s) and Rmax and Rmin represent the ligand-free and ligand-saturated FRET ratios, respectively.

[2] = test system: V. harveyi strain MM30 (luxS-); test: Bacterial reporter bioassay (luminescence) and EC50 determination; assay type: cell-based; conditions: MM30 in borate-free AB medium
Method: V. harveyi strain MM30 (luxS^−) is grown overnight at 28° C. for 16 hours and diluted 1:5000 in fresh borate-free AB medium. Bacteria (90 μL) are added to a 96-well microtiter plate containing 10 μL dilutions of the sample and incubated for 4 hours at 30° C. Luminescence is read using a Wallac Victor2 multimode plate reader (Perkin-Elmer). The BAI-2 concentration required for 50% maximum luminescence response (EC50) is determined using a relationship based on the luminescence response L for different ligand concentrations (s)
where Lmin and Lmax represent the minimum and maximum luminescence responses, respectively, at the time of measurement.

| Compound | CLPY FRET response ([1]; DPD ≦100 μM) | bacterial reporter strain luminescence response (qualitative) [2] | CLPY FRET response ([1]; borate ≦400 μM) |
| --- | --- | --- | --- |
| CC(=O)C(=O)C(O)CO (stereo not shown) [DPD, 4,5-dihydroxy-2,3-pentanedione] | did not exhibit any detectable FRET response | did not respond |  |
| OB(O)O [borate] |  | did not respond | did not exhibit any detectable FRET response |

Reference: patent US20120122115A1, “Bacterial quorum sensing biosensor” (priority 2006, published 2012)
